Laboratory results published in publication PMC11877508, “Anti-inflammatory and Hepatoprotective Iridoid Glycosides from the Roots of Gomphandra mollis” (Journal of Natural Products, 2025).
Where two headings read alike, the source gives them in different places.

Legend:
[1] = system: NO production in LPS-stimulated RAW264.7 cells; assay: Inhibition of nitric oxide (NO) production in LPS-stimulated RAW264.7 cells (Griess reagent); type: cell-based; conditions: 1 μg/mL LPS, read-out: IC50 value, NO production inhibitory effect
Experimental: (§1) RAW264.7 cells were cultured in Dulbecco’s modified essential medium (DMEM, Gibco). The cells were incubated at 37 °C in DMEM with 10% fetal bovine serum (FBS, Gibco), penicillin (100 U/mL, Gibco), and streptomycin sulfate (100 μg/mL, Gibco) under a humidified atmosphere containing 5% CO2. Briefly, 2 × 10^4 cells/well treated for 24 h with vehicle or compounds were examined for cell viability based on the MTT (3-(4,5-dimethylthiazol-2-yl)-2,5-diphenyltetrazolium bromide assay) method.[60] Survival of macrophage cells after treatment with compounds was measured at a wavelength of 570 nm.
(§2) RAW264.7 cells (2 × 10^4 cells/well) were stimulated with or without 1 μg/mL lipopolysaccharide (LPS, Sigma) for 24 h in the presence or absence of the test compounds at different concentrations. Afterward, 100 μL of the cell culture supernatant was mixed with 100 μL of Griess reagent.[61] The remaining cells from the Griess assay were then utilized to determine their viability by using the MTT colorimetric assay described above.

[2] = HepG2 cytotoxicity test (MTT, 48 h); conditions: human, HepG2 cells
Experimental: (§3) Human hepatocellular carcinoma HepG2 cells were cultured in DMEM (Gibco) supplemented with 10% FBS (Gibco) and 1% antibiotic–antimycotic (Gibco, 15240062). Once cells reached approximately 80% confluence, they were washed with PBS and detached using trypsin-EDTA (Gibco, 25200072) at 37 °C for 5 min. Cells were then seeded into 96-well plates at a density of 3 × 10^4 cells per well (100 μL/well) and incubated for 24 h at 37 °C in a humidified atmosphere with 5% CO2.
(§4) After the initial incubation, the medium was replaced with 100 μL of fresh medium containing the test compounds, and the cells were incubated for an additional 48 h. Cell viability was determined using the MTT assay, following standard protocols with untreated cells serving as the control. The percentage of cell viability was calculated using the following formula: % viability = [(number of viable cells)/(total cells)] × 100. The concentration of the test compounds was set at 80 μM for the screening.

[3] = RAW264.7 cell viability (MTT) alongside the NO assay; conditions: RAW264.7 cells
Experimental: as §1, §2

[4] = Hepatoprotective effect in acetaminophen-induced hepatotoxicity in HepG2 cell model (MTT); type: cell-based; conditions: human, HepG2 cells, HepG2, 6 mM APAP, control without APAP 100%, read-out: Cell viability, treated only with acetaminophen (APAP)
Experimental: Compounds that maintained cell viability above 80% were subsequently tested for their hepatoprotective properties using an acetaminophen-induced hepatotoxicity model in HepG2 cells. […] Afterward, the cells were treated with the test compounds. Eight hours later, hepatotoxicity was induced by adding acetaminophen (6 mM, Sigma-Aldrich A7085) to the wells. Cell viability was measured using the MTT assay 36 h after acetaminophen exposure, and the results were used to assess the hepatoprotective effects of the compounds.

in vitro [5] = assay: in vitro
Experimental: as §1, §2

in vitro [6] = conditions: human
Experimental: as §3, §4

| SMILES | IC50 ([1]; Mus musculus, RAW264.7, 24 h) [µM] | viability at 48 h, 80 µM [2] [%] | viability at 48 h, 80 µM [3] [%] | also measured |
| --- | --- | --- | --- | --- |
| C=C[C@H]1[C@H](O[C@@H]2O[C@H](CO)[C@@H](O)[C@H](O)[C@H]2O)OC=C(C(=O)O[C@H]2C[C@@H]3CCOC(=O)[C@@H]3[C@H]2C)[C@H]1C[C@@H](O)O[C@@H](O)C[C@@H]1C(C(=O)O[C@H]2C[C@@H]3CCOC(=O)[C@@H]3[C@H]2C)=CO[C@@H](O[C@@H]2O[C@H](CO)[C@@H](O)[C@H](O)[C@H]2O)[C@@H]1C=C [Compound 7, gomphandranoside G] | 14.7 ± 0.9 | > 80 | 95.3 ± 2.4 |  |
| C=C[C@H]1[C@H](O[C@@H]2O[C@H](CO)[C@@H](O)[C@H](O)[C@H]2O)OC=C(C(=O)O[C@H]2C[C@@H]3C(C(=O)OC)=CO[C@@H](O[C@@H]4O[C@H](CO)[C@@H](O)[C@H](O)[C@H]4O)[C@@H]3[C@@H]2C)[C@H]1/C=C(\C=O)[C@@H]1C(C(=O)O[C@H]2C[C@@H]3C(C(=O)OC)=CO[C@@H](O[C@@H]4O[C@H](CO)[C@@H](O)[C@H](O)[C@H]4O)[C@@H]3[C@H]2C)=CO[C@@H](O[C@@H]2O[C@H](CO)[C@@H](O)[C@H](O)[C@H]2O)[C@@H]1C=C [Compound 17, dipsanoside B] | 14.4 ± 1.5 | > 80 | 94.2 ± 4.6 |  |
| C=CC1C(CC=O)C(C(=O)O[C@H]2CC3C(C(=O)OC)=CO[C@@H](O[C@@H]4O[C@H](CO)[C@@H](O)[C@H](O)[C@H]4O)C3[C@H]2C)=CO[C@H]1O[C@@H]1O[C@H](CO)[C@@H](O)[C@H](O)[C@H]1O (stereo partly shown) [Compound 12, cantleyoside] | 23.1 ± 1.7 |  |  |  |
| C=C[C@H]1[C@H](O[C@@H]2O[C@H](CO)[C@@H](O)[C@H](O)[C@H]2O)OC=C(C(=O)O[C@H]2C[C@@H]3C(C(=O)OC)=CO[C@@H](O[C@@H]4O[C@H](CO)[C@@H](O)[C@H](O)[C@H]4O)[C@@H]3[C@H]2C)[C@H]1C[C@H]1OC[C@H]2O[C@H](OC[C@H]3O[C@@](CO)(O[C@H]4O[C@H](CO)[C@@H](O)[C@H](O)[C@H]4O)[C@@H](O)[C@@H]3O)[C@H](O)[C@@H](O)[C@H]2O1 [Compound 4, gomphandranoside D] | 19.5 ± 0.3 | > 80 | 95.1 ± 2.8 |  |
| C=C[C@@H]1[C@H](O[C@@H]2O[C@H](CO)[C@@H](O)[C@H](O)[C@H]2O)OC=C(C(=O)O[C@H]2C[C@@H]3C(C(=O)OC)=CO[C@H](O[C@@H]4O[C@H](CO)[C@@H](O)[C@H](O)[C@H]4O)[C@@H]3[C@H]2C)[C@@H]1/C(C=O)=C\C[C@H]1C(C(=O)O[C@H]2C[C@@H]3CCOC(=O)[C@@H]3[C@H]2C)=CO[C@@H](O[C@@H]2O[C@H](CO)[C@@H](O)[C@H](O)[C@H]2O)[C@H]1C=C [Compound 8, gomphandranoside H] | 14.4 ± 1.2 |  | 100 ± 2.5 |  |
| C=C[C@H]1[C@H](O[C@@H]2O[C@H](CO)[C@@H](O)[C@H](O)[C@H]2O)OC=C(C(=O)O[C@H]2C[C@@H]3C(C(=O)OC)=CO[C@@H](O[C@H]4O[C@H](CO)[C@@H](O)[C@H](O)[C@H]4O)[C@@H]3[C@H]2C)[C@H]1C1=COC[C@@H]2[C@H]3[C@@H](O[C@@H]4O[C@H](CO)[C@@H](O)[C@H](O)[C@H]4O)OC=C(C(=O)O[C@H]4C[C@@H]5C(C(=O)OC)=CO[C@@H](OC6O[C@H](CO)[C@@H](O)[C@H](O)[C@H]6O)[C@@H]5[C@H]4C)[C@H]3C[C@H]12 (stereo partly shown) [Compound 10, gomphandranoside K] | 12.2 ± 1.1 |  | 96.7 ± 1.5 |  |
| CC(=O)Nc1ccc(O)cc1 [acetaminophen (APAP), acetaminophen] |  |  |  | viability at 36 h, 6 mM [4]: 68.1% |
| C[C@@H]1C[C@H]2[C@@H]3CCC4=CC(=O)C=C[C@]4(C)[C@@]3(F)[C@@H](O)C[C@]2(C)[C@@]1(O)C(=O)CO [dexamethasone, reference compound] | 9.08 ± 0.5 |  |  | viability at 48 h, 20 µM [3]: 96.3 ± 2.6% |
| C=C[C@H]1[C@H](O[C@@H]2O[C@H](CO)[C@@H](O)[C@H](O)[C@H]2O)OC=C(C(=O)O[C@H]2C[C@@H]3C(C(=O)OC)=CO[C@@H](O[C@@H]4O[C@H](CO)[C@@H](O)[C@H](O)[C@H]4O)[C@@H]3[C@H]2C)[C@H]1C[C@@H]1N[C@H](C(=O)O)Cc2c1[nH]c1ccccc21 [Compound 16, dipsaperine] | 17 ± 1.1 | > 80 | 95.2 ± 2.1 |  |
| C=C[C@H]1[C@H](O[C@@H]2O[C@H](CO)[C@@H](O)[C@H](O)[C@H]2O)OC=C2C(=O)OCC[C@H]21 [Compound 13, sweroside] |  |  |  | IC50 ([1]; Mus musculus, 24 h): 36 ± 1.6 µM; viability at 48 h, 80 µM (in vitro [5]): 94.7 ± 4.2%; viability at 48 h, 80 µM (in vitro [6]): > 80% |
| C=C[C@H]1[C@H](O[C@@H]2O[C@H](CO)[C@@H](O)[C@H](O)[C@H]2O)OC=C(C(=O)O[C@H]2C[C@@H]3C(C(=O)OC)=CO[C@@H](O[C@@H]4O[C@H](CO)[C@@H](O)[C@H](O)[C@H]4O)[C@@H]3[C@H]2C)[C@H]1C[C@@H]1O[C@@H]2[C@@H](O)[C@@H](OC[C@H]3O[C@@](CO)(O[C@H]4O[C@H](CO)[C@@H](O)[C@H](O)[C@H]4O)[C@@H](O)[C@@H]3O)O[C@H](CO)[C@@H]2O1 [Compound 6, gomphandranoside F] | 20.2 ± 1.1 | > 80 | 94.6 ± 4.5 |  |
| COC(=O)C1=CO[C@@H](O[C@@H]2O[C@H](CO[C@H]3O[C@H](CO)[C@H](O)[C@H](O)[C@H]3O)[C@@H](O)[C@H](O)[C@H]2O)[C@@H]2[C@@H](C)[C@@H](O)C[C@H]12 [Compound 1, loganin 6′-O-α-D-galactopyranoside] | 9.19 |  | 97.7 ± 2.3 | IC50 ([1]; 24 h): 9.18 ± 0.3 µM |
| C=C[C@H]1[C@H](O[C@@H]2O[C@H](CO)[C@@H](O)[C@H](O)[C@H]2O)OC=C(C(=O)O[C@H]2C[C@@H]3C(C(=O)OC)=CO[C@@H](O[C@@H]4O[C@H](CO)[C@@H](O)[C@H](O)[C@H]4O)[C@@H]3[C@H]2C)[C@H]1CC=O [Compound 12, cantleyoside] |  | > 80 | 93.9 ± 2.5 |  |
| C=C[C@H]1[C@H](O[C@@H]2O[C@H](CO)[C@@H](O)[C@H](O)[C@H]2O)OC=C(C(=O)O[C@H]2C[C@@H]3C(C(=O)OC)=CO[C@@H](O[C@@H]4O[C@H](CO)[C@@H](O)[C@H](O)[C@H]4O)[C@@H]3[C@@H]2C)[C@H]1/C=C(\C=O)[C@@H]1C(C(=O)O[C@@H]2C[C@@H]3C(C(=O)OC)=CO[C@@H](O[C@@H]4O[C@H](CO)[C@@H](O)[C@H](O)[C@H]4O)[C@@H]3[C@@H]2C)=CO[C@@H](O[C@@H]2O[C@H](CO)[C@@H](O)[C@H](O)[C@H]2O)[C@@H]1C=C [Compound 15, dipsanoside A] | 6.13 ± 0.5 | > 80 | 99.5 ± 3.6 |  |
| COC(=O)C1=CO[C@@H](O[C@@H]2O[C@H](CO)[C@@H](O)[C@H](O)[C@H]2O)[C@@H]2[C@@H](C)[C@@H](O)C[C@H]12 [Compound 18, loganin] | 51.1 ± 1.8 | > 80 | 98.1 ± 4 |  |
| C=CC1C(CC(OC)OC)C(C(=O)O[C@H]2CC3C(C(=O)OC)=CO[C@@H](O[C@@H]4O[C@H](CO)[C@@H](O)[C@H](O)[C@H]4O)C3[C@H]2C)=CO[C@H]1O[C@@H]1O[C@H](CO)[C@@H](O)[C@H](O)[C@H]1O (stereo partly shown) [Compound 11, cantleyoside-dimethyl-acetal] | 26.2 ± 1.3 | > 80 | 94.8 ± 3.7 |  |
| C=C[C@H]1[C@H](O[C@@H]2O[C@H](CO)[C@@H](O)[C@H](O)[C@H]2O)OC=C(C(=O)O[C@H]2C[C@@H]3C(C(=O)OC)=CO[C@@H](O[C@@H]4O[C@H](CO)[C@@H](O)[C@H](O)[C@H]4O)[C@@H]3[C@H]2C)[C@H]1C[C@H]1OC[C@H]2O[C@H](OC[C@H]3O[C@](O)(CO)[C@@H](O)[C@@H]3O)[C@H](O)[C@@H](O)[C@H]2O1 [Compound 5, gomphandranoside E] | 17.7 ± 0.4 | > 80 | 98.9 ± 3.1 |  |
| C=C[C@H]1[C@H](O[C@@H]2O[C@H](CO)[C@@H](O)[C@H](O)[C@H]2O)OC=C(C(=O)O[C@H]2C[C@@H]3C(C(=O)OC)=CO[C@@H](O[C@@H]4O[C@H](CO)[C@@H](O)[C@H](O)[C@H]4O)[C@@H]3[C@H]2C)[C@H]1C1=CO[C@H]2C[C@@H]1C[C@@H]1C(C(=O)O[C@H]3C[C@@H]4C(C(=O)OC)=CO[C@@H](O[C@@H]5O[C@H](CO)[C@@H](O)[C@H](O)[C@H]5O)[C@@H]4[C@H]3C)=CO[C@@H](O[C@@H]3O[C@H](CO)[C@@H](O)[C@H](O)[C@H]3O)[C@H]21 [Compound 9, gomphandranoside I] | 12.9 ± 0.5 | > 80 | 98.3 ± 2.6 |  |
| C=C[C@H]1[C@H](O[C@@H]2O[C@H](CO)C(O)[C@H](O)[C@H]2O)OC=C(C(=O)O[C@H]2C[C@@H]3CCOC(=O)[C@@H]3[C@H]2C)[C@H]1CC(OC)OC (stereo partly shown) [Compound 3, gomphandranoside C] | 23.8 ± 2.6 | > 80 | 103 ± 3.5 |  |
